Laboratory results published in US20230287027A1, “ADJUVANT WITH TLR4 AGONIST ACTIVITY” (Sumitomo Pharma Co., Ltd, priority 2020, published 2023).

Experiments:
human TLR4 = biological target: T1, human TLR4 (Homo sapiens, UniProt O00206+Q9Y6Y9); test: Human TLR4 reporter gene assay (Test 1); assay type: cell-based; details: HEK-Blue hTLR4 cell line, SEAP reporter, 37° C. 16-20 hours, 0.1% DMSO; concentration giving half of maximal SEAP level induced with LPS
T1 construct: host or cells: HEK-Blue hTLR4 cell line
Source text: Human TLR4 Reporter Gene Assay
(§1) HEK-Blue™ hTLR4 cell line (Invivogen Corporation) is a stably co-transfected cell line which expresses human TLR4, MD2, CD14, and secretory alkaline phosphatase (SEAP) reporter gene under the transcriptional regulation of an NF-κB response element. The TLR4 expression of the cell line has been already tested by RT-PCR, flow cytometry. Transfectants with stable expression were selected using the antibiotic HEK-Blue™ Selection. TLR signaling leads to the translocation of NF-κB and the activation of the promoter results in expression of the SEAP gene. TLR4-specific activation was assessed by determining the level of SEAP produced following incubation of the cells at 37° C. for 16-20 hours with each compound prepared in Examples and Reference examples in the presence of 0.1% (v/v) DMSO. The human TLR4 activity for the present compound was assessed by human TLR4 reporter gene assay, and the concentration of the compound concentration which produced half of the maximal level of SEAP induced with lipopolysaccharide (LPS) was determined as EC50.

mouse TLR4 = biological target: T2, mouse TLR4 (Mus musculus, UniProt Q9JHF9+Q9QUK6); test: Mouse TLR4 reporter gene assay (Test 2); assay type: cell-based; details: HEK-Blue mTLR4 cell line, SEAP reporter, 37° C. 16-20 hours, 0.1% DMSO; concentration giving half of maximal SEAP level induced with LPS
T2 construct: host or cells: HEK-Blue mTLR4 cell line
T2 sequence (Q9QUK6 26-835): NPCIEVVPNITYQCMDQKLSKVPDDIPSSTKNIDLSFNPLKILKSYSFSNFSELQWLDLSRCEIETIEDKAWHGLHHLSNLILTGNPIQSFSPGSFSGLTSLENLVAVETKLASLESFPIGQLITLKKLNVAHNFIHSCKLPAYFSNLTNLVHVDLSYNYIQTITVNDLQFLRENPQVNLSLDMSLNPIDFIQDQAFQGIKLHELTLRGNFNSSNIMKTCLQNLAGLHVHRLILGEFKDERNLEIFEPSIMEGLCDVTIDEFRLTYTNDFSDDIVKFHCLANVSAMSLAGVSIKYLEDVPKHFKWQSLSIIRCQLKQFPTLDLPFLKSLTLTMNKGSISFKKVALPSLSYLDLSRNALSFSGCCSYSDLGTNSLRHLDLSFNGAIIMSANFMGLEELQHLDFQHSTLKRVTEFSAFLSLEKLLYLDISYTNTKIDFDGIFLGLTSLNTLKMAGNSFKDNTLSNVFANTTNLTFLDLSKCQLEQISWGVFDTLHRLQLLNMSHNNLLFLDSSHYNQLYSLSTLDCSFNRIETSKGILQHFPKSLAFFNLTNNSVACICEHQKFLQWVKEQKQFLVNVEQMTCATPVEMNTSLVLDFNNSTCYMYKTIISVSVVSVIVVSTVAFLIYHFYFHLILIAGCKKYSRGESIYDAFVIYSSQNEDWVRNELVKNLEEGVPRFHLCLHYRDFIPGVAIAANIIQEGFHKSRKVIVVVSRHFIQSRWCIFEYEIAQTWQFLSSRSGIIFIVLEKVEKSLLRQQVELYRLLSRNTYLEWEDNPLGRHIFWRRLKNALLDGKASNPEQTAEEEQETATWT
T2 sequence (Q9JHF9 19-160): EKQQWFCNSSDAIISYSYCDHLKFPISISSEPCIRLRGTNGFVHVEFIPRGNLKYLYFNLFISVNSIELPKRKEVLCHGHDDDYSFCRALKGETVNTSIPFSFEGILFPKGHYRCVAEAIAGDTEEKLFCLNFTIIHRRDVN
Source text: Mouse TLR4 Reporter Gene Assay
as §1, with “mTLR4” for “hTLR4”, “(Invivogen)” for “(Invivogen Corporation)”, “mouse” for “human”, “CD14” for “CD14,”, “SEAP” for “alkaline phosphatase (SEAP)”, “LPS” for “lipopolysaccharide (LPS)”

T1 sequence (O00206 24-839): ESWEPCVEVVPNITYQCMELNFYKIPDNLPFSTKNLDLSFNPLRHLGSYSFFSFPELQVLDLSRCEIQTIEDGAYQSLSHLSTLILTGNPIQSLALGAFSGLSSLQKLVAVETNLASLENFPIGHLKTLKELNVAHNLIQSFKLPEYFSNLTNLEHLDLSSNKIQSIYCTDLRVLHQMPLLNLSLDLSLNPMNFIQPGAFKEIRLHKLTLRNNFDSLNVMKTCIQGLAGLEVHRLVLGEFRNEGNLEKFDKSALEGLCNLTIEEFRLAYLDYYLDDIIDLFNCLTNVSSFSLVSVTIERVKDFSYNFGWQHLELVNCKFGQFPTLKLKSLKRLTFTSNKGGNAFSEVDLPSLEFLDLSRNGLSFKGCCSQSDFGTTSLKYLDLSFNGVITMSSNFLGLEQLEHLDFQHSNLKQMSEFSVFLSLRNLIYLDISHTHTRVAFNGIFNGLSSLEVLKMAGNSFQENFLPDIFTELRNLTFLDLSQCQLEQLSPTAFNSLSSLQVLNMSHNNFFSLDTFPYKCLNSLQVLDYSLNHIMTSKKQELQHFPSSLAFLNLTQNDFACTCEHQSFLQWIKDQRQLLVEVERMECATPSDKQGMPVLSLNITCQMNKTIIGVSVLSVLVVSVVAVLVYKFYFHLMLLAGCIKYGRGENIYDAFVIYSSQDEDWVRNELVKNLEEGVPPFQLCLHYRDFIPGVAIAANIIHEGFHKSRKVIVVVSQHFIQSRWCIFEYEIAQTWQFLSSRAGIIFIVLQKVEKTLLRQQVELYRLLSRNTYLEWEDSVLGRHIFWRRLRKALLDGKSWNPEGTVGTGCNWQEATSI
T1 sequence (Q9Y6Y9 17-160 limits assumed): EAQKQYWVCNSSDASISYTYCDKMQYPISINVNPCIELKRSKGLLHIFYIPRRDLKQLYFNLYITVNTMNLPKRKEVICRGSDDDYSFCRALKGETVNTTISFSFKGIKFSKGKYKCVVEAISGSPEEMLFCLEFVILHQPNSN

Row | EC50 (human TLR4) | EC50 (mouse TLR4) | human TLR4 EC50 (human TLR4) | mouse TLR4 EC50 (mouse TLR4) | Molecule
1 | 161 nM | 137 nM | – | – | CCCCCCCCCCC[C@H](CC(=O)NC1C(OC[C@@H](NC(=O)C[C@@H](CCCCCCCCCCC)OC(=O)CCCCCCCCC)C(=O)O)OC(CO)C(O)C1OC(=O)C[C@@H](CCCCCCCCCCC)OC(=O)CCCCCCCCC)OC(=O)CCCCCCCCc1ccccc1 (stereo partly drawn) [Example 3, (2R)-2-{[(3R)-3-(decanoyloxy)tetradecanoyl]amino}-3-{[4-{[(3R)-3-(decanoyloxy)tetradecanoyl]oxy}-5-hydroxy-6-(hydroxymethyl)-3-({(3R)-3-[(9-phenylnonanoyl)oxy]tetradecanoyl}amino)oxan-2-yl]oxy}propanoic acid]
2 | 12.9 nM | 12.9 nM | – | – | CCCCCCCCCCC[C@H](CC(=O)NC(COC1OC(CO)C(OP(=O)(O)O)C(OC(=O)C[C@@H](CCCCCCCCCCC)OC(=O)CCCCCCCCc2ccccc2)C1NC(=O)C[C@@H](CCCCCCCCCCC)OC(=O)CCCCCCCCC)C(=O)O)OC(=O)CCCCCCCCC (stereo partly shown) [Reference example 10]
3 | 14.2 nM | 14.2 nM | – | – | CCCCCCCCCCC[C@H](CC(=O)NC(COC1OC(CO)C(OP(=O)(O)O)C(OC(=O)C[C@@H](CCCCCCCCCCC)OC(=O)CCCCCCCCC)C1NC(=O)C[C@@H](CCCCCCCCCCC)OC(=O)CCCCCCCCC)C(=O)O)OC(=O)CCCCCCCCc1ccccc1 (stereo partly shown) [compound 14]
4 | 457 nM | 50.3 nM | – | – | CCCCCCCCCCC[C@H](CC(=O)NC(COC1OC(CO)C(OP(=O)(O)O)C(OC(=O)C[C@@H](CCCCCCCCCCC)OC(=O)CCCCCCCCC)C1NC(=O)C[C@@H](CCCCCCCCCCC)OC(=O)CCCCCCCCc1ccccc1)C(=O)O)OC(=O)CCCCCCCCC (single isomer, unassigned) [compound 11]
5 | 34.2 nM | 13.5 nM | – | – | CCCCCCCCCCC[C@H](CC(=O)NC(COC1OC(CO)C(OP(=O)(O)O)C(OC(=O)C[C@@H](CCCCCCCCCCC)OC(=O)CCCCCCCCC)C1NC(=O)C[C@@H](CCCCCCCCCCC)OC(=O)CCCCCCCCC)C(=O)O)OC(=O)CCCCCCCCc1ccccc1 (stereo partly shown) [compound 13]
6 | 101 nM | 49.7 nM | – | – | CCCCCCCCCCC[C@H](CC(=O)NC(COC1OC(CO)C(O)C(OC(=O)C[C@@H](CCCCCCCCCCC)OC(=O)CCCCCCCCC)C1NC(=O)C[C@@H](CCCCCCCCCCC)OC(=O)CCCCCCCCC)C(=O)O)OC(=O)CCCCCCCCc1ccccc1 (stereo partly drawn) [Example 5, (2S)-2-({[(3R)-3-(9-phenylnonanoyl)oxy]tetradecanoyl}amino)-3-{[3-{[(3R)-3-(decanoyloxy)tetradecanoyl]amino}-5-hydroxy-6-(hydroxymethyl)-4-({(3R)-3-(decanoyloxy)tetradecanoyl}oxy)oxan-2-yl]oxy}propanoic acid]
7 | – | – | 0.077 µg/mL | 0.057 µg/mL | (2R)-2-({[(3R)-3-(9-phenylnonanoyl)oxy]tetradecanoyl}amino)-3-{[3-{[(3R)-3-(decanoyloxy)tetradecanoyl]amino}-5-hydroxy-6-(hydroxymethyl)-4-({(3R)-3-(decanoyloxy)tetradecanoyl}oxy)oxan-2-yl]oxy}propanoic acid [Example 4]
8 | > 645 nM | > 645 nM | – | – | CCCCCCCCCCC[C@H](CC(=O)NC(COC1OC(CO)C(OP(=O)(O)O)C(OC(=O)C[C@@H](CCCCCCCCCCC)OC(=O)CCCCCCCCC)C1NC(=O)C[C@@H](CCCCCCCCCCC)OC(=O)CCCCCCCCc1ccccc1)C(=O)O)OC(=O)CCCCCCCCC (single isomer, unassigned) [compound 12]
